Experimental data: US20240026261A1, “ENGINEERING OF ORGANOID CULTURE FOR ENHANCED ORGANOGENESIS IN A DISH” (THE TRUSTEES OF THE UNIVERSITY OF PENNSYLVANIA, priority 2020, published 2024)

Tests used:
Assay type in all cases: cell-based, mouse
[1] = test system: intestinal organoids; assay: Intracellular calcium imaging (Fluo-4) of intestinal organoids
Method: To assess the level of intracellular calcium, the organoids were labeled with a fluorescent calcium indicator dye (Fluo-4) and monitored their fluorescence in real-time. Given the multicellular complexity of organoids, the mean fluorescence intensity was measured from representative organoids selected for analysis. Upon treatment with 100 μM ATP, organoids in the device increased their fluorescence by approximately 1.6-fold within 60 seconds, which was followed by a gradual decrease to the baseline level (FIG. 4E).
For calcium imaging, the organoid media were removed from the culture wells, and the organoid constructs were washed once in live-cell imaging solution (LCIS). The organoids were then loaded with Fluo-4 calcium imaging solution (F10489, ThermoFisher Scientific, USA) prepared according to the manufacturer's protocol. The samples were incubated at 37° C. for 30 minutes, which was followed by another 30-minute incubation at room temperature. Subsequently, the Fluo-4 solution was removed, and the organoids were washed once with LCIS. All samples were kept in fresh LCIS until use. An inverted epi-fluorescence microscope (Axio Observer D1, Zeiss, Germany) was used to visualize calcium staining of organoids upon stimulation with 100 μM of ATP (A1852, Sigma, USA) and 50 mM of glucose (G7021, Sigma, USA).
For ratiometric analysis of changes in Ca2+ levels, fluorescence intensity for each or-ganoid was measured during an experiment, and values were normalized by their resting intensities using the equation below.
ΔCa^2+=(F−Frest)/Frest (1)

[2] = test system: co-culture of intestinal organoids and primary intestinal fibroblasts (released fibronectin); assay: Intestinal fibrosis model in OCTOPUS, released fibronectin by ELISA of conditioned media
Description: (§1) The difference between the two groups became evident within 3 days of treatment and remained statistically significant throughout the culture period (FIG. 6I). […] Consistent with the analysis of fibroblast activation and proliferation (FIG. 6E, FIG. 6F), from the comparison between co-culture and monoculture models, intestinal organoids potentiate the fibrogenic effect of TGF-β and promote FN production by fibroblasts (FIG. 6I, FIG. 6J) were identified.
(§2) First, fibrotic intestinal tissue constructs in OCTOPUS were generated by forming co-culture organoids over 5 days and exposing them to TGF-β for another 7 days as described above (day 5-day 12). These constructs were then treated with clinically relevant concentrations of the drugs for 48 hours (day 13-day 14) within the therapeutic window identified by viability assessment (data not shown). […] At 0.1 mM, Pirfenidone was effective for altering the contractile phenotype of fibroblasts, as illustrated by 50% reduction in αSMA compared to the untreated control (FIGS. 6L to 6O).
For the analysis of fibronectin production in the intestinal fibrosis model, a mouse fibronectin ELISA kit (ab108849, abcam, USA) was used. The media in the wells were collected at specified time points and assayed using manufacturer-provided protocols. First, 50 μl of standard or device-collected samples were added into each well and incubated for 2 hours at room temperature. Subsequently, the wells were washed 5 times with 300 μl of wash buffer solution and then incubated with fibronectin antibody for 1 hour. […]
For all ELISA assays, a multimode plate reader (M200, Tecan, Switzerland) was used to measure the optical density of samples. […]
(§3) To form an intestinal fibrosis model suitable for, e.g. drug testing, in OCTOPUS, mouse intestinal stem cells were mixed with 1×10^6 cells/ml of mouse intestinal fibroblasts in Matrigel (356255, Corning, USA). […] The fibrosis model was treated with drugs for 48 hours, after which changes in its fibrotic phenotype were analyzed using the methods described herein.

[3] = test system: co-culture of intestinal organoids and primary intestinal fibroblasts (fibronectin); assay: Intestinal fibrosis model in OCTOPUS, fibronectin (FN) deposition by immunofluorescence
Description: as §1, §2
(§4) To form an intestinal fibrosis model suitable for, e.g. drug testing, in OCTOPUS, mouse intestinal stem cells were mixed with 1×10^6 cells/ml of mouse intestinal fibroblasts in Matrigel (356255, Corning, USA). This cell-containing hydrogel solution was injected into the device to form microtissue constructs in the organoid culture chambers. After gelation for 15 minutes in a regular cell culture incubator, 750 μl of IntestiCult™ organoid growth medium (06005, STEMCELL Technologies, Canada) was added into each well and maintained for 5 days to induce intestinal organoid development and fibroblast proliferation. During this period, the media were replenished every other day. To induce fibrosis, 1 ng/ml of TGF-β (T5050, Sigma, USA) was added to the culture wells on day 5 and maintained for additional 7 days. Drug administration occurred on day 12 using commercially available Pirfenidone (P1871, TCI America, USA) and Nintedanib (S1010, Selleckchem, USA) at specified concentrations. The fibrosis model was treated with drugs for 48 hours, after which changes in its fibrotic phenotype were analyzed using the methods described herein.
(§5) For immunofluorescence staining, cells in OCTOPUS were washed with PBS twice, fixed with 4% paraformaldehyde (Electron Microscopy Sciences, USA) for 15 minutes at room temperature, and washed again twice with PBS. The cells were then permeabilized with 0.1% Triton X-100 (Sigma) in PBS for 3 minutes and exposed to blocking buffer composed of PBS and 3% bovine serum albumin (BSA; Sigma) for overnight at 4° C. […]

[4] = test system: co-culture of intestinal organoids and primary intestinal fibroblasts (αSMA); assay: TGF-β-induced intestinal fibrosis model in OCTOPUS, αSMA immunofluorescence (fibroblast activation); conditions: for increase in level of αSMA expression in comparison to untreated tissues: TGF-β 1 ng/ml from day 5
Description: To this end, OCTOPUS was used to set up a co-culture of intestinal organoids and primary intestinal fibroblasts in the same hydrogel scaffold and generate a multicellular construct reminiscent of the intestinal epithelium and its underlying stroma in vivo (FIG. 6A). In this mixed co-culture configuration, the intestinal progenitor cells embedded in Matrigel developed into or-ganoids over the course of 5 days or so, during which fibroblasts began to spread and proliferate around the nascent organoids. […] Prolonged culture in this device led to the formation of microtissues densely populated with enlarged organoids and fibroblasts (FIG. 6C).
(§6) To simulate the scenario of using this system to assess intestinal fibrosis in a conventional laboratory setting, a common technique widely used for in vitro modeling of fibrosis, which was to treat the co-culture construct with transforming growth factor (TGF)-β, were used. TGF-β plays a central role in the pathogenesis of fibrosis in the intestine and other organs by inducing the activation of fibroblasts and their transdifferentiation into myofibroblasts, which are the key effector cells that drive fibrogenesis. To trigger fibrogenic responses, the model was treated with TGF-β at 1 ng/ml from day 5 to day 12. Exposure of the intestinal microtissue to this condition indeed caused the fibroblasts to acquire the contractile phenotype of myofibroblasts, as evidenced by robust expression of alpha-smooth muscle actin (αSMA) (FIG. 6D). In comparison to untreated tissues, the level of expression increased by more than 1.9- and 2.9-fold by day 8 and day 12, respectively (FIG. 6E).
as §2, §4, §5

[5] = test system: co-culture microtissues of intestinal organoids and fibroblasts; assay: Intestinal fibrosis model in OCTOPUS, tissue stiffness by atomic force microscopy; conditions: for stiffness of the TGF-β-treated fibrotic tissues (AFM): administered at higher doses
Method: To further validate the fibrotic phenotype of the model, the stiffness of the TGF-β-treated microtissues was measured by using atomic force microscopy (AFM). This measurement was greatly facilitated by the open-top design of OCTOPUS that allowed direct access of the AFM probe to the tissue constructs in the culture chambers (FIG. 6K). […] As expected, treatment of this model with TGF-01 led to a marked increase in the extent of tissue stiffening and generated co-culture constructs that were 2.9 times stiffer than those in the untreated devices (FIG. 6K).
The average stiffness measured in the fibrosis model treated with 0.5 mM Pirfenidone (3.5 kPa) closely matched that of normal tissue constructs (3.3 kPa), illustrating the potential of Pirfenidone to normalize the mechanical property of fibrotic intestinal tissues in the model system.
as §4
Atomic force microscopy (AFM, MFP-3D-BIO, Asylum) was used to measure the stiffness of hydrated microtissues in the intestinal fibrosis models. A gold-coated cantilever (SCONT tip, NANOSENSORS) with a spring constant of 14.58 pN/nm and a pyramid indenter was used to obtain force-indentation curves. The tissue samples in the open chambers were used directly without any modification. For the AFM measurement, the OCTOPUS insert containing microtissue was removed from the plate and mounted on the instrument. After wetting the microtissue with a drop of PBS, its mechanical property was measured with the scanning probe. Young's modulus was calculated from the force indentation data using the Atomic J software.

[6] = test system: primary intestinal fibroblasts co-cultured with intestinal organoids; assay: Intestinal fibrosis model in OCTOPUS, fibroblast proliferation; conditions: TGF-β 1 ng/ml from day 5; by day 12
Description: as §6, §3

[7] = 0.5 μM, 48 hours, to levels comparable to Pirfenidone at 0.5 mM
[8] = higher-dose (0.5 mM) treatment, 48 hours

Nc1ncnc2c1ncn2[C@@H]1O[C@H](COP(=O)(O)OP(=O)(O)OP(=O)(O)O)[C@@H](O)[C@H]1O [ATP]
calcium response of the conventional model (Matrigel drop) ([1]; 100 μM, hydrogel drop culture, versus OCTOPUS): noticeably slower and occurred to a lesser extent
increase in Fluo-4 fluorescence (intracellular calcium) ([1]; 100 μM, organoids in OCTOPUS, within 60 seconds): approximately 1.6 fold

O=C[C@H](O)[C@@H](O)[C@H](O)[C@H](O)CO [D-glucose]
increase in intracellular calcium in OCTOPUS ([1]; 50 mM, organoids in OCTOPUS): greater than that induced by ATP stimulation

COC(=O)c1ccc2c(c1)NC(=O)/C2=C(\Nc1ccc(N(C)C(=O)CN2CCN(C)CC2)cc1)c1ccccc1 [Nintedanib]
concomitant reduction in the concentration of released FN (ELISA) ([2]; 0.5 μM, 48 hours): not observed
FN accumulation [3, 7]: decreased substantially
fibroblast activation (αSMA) [4, 7]: decreased substantially
effects on the fibrosis model (αSMA, FN) ([4]; lower dose 0.1 μM, 48 hours): failed to exert significant effects
stiffness of the TGF-β-treated fibrotic tissues (AFM) ([5]; 48 hours): significantly decreased

Cc1ccc(=O)n(-c2ccccc2)c1 [Pirfenidone]
amount of FN released from the model (ELISA) ([2]; 48 hours treatment): reduced
immunofluorescence of FN in drug-treated fibrotic constructs ([3]; 48 hours treatment): significantly decreased
level of FN production versus normal group (healthy intestinal tissue) [3, 8]: statistically indistinguishable
reduction in αSMA compared to the untreated control ([4]; 0.1 mM, 48 hours, TGF-β-induced fibrotic constructs): 50%
expression of αSMA ([4]; dose increased to 0.5 mM, 48 hours): further decreased
level of αSMA expression versus normal group (healthy intestinal tissue) [4, 8]: statistically indistinguishable
average stiffness of the treated fibrosis model ([5]; 0.5 mM, 48 hours, normal tissue constructs 3.3 kPa): 3.5 kPa
stiffness of the TGF-β-treated fibrotic tissues (AFM) ([5]; 48 hours): significantly decreased

transforming growth factor (TGF)-β [TGF-β]
released FN (ELISA of conditioned media) ([2]; TGF-β 1 ng/ml, day 5 to day 12): higher levels of released FN
FN in the pericellular regions of fibroblasts (immunostaining) compared to untreated tissues ([3]; TGF-β 1 ng/ml, day 5 to day 12): substantially increased
increase in level of αSMA expression in comparison to untreated tissues ([4]; by day 8): more than 1.9 fold
increase in level of αSMA expression in comparison to untreated tissues ([4]; by day 12): > 2.9 fold
average tissue stiffness ([5]; TGF-β-treated co-culture constructs, AFM): 10.1 kPa
stiffness of co-culture constructs relative to untreated devices ([5]; TGF-β-treated, AFM, 14 days culture): 2.9 times
fibroblast proliferation, cells compared to the untreated control group [6]: approximately twice as many cells
